Here are results for nine compounds from patent US20100184683A1, “ANTIBACTERIAL AND ANTIFUNGAL PEPTIDES” (C3 JIAN, INC., priority 2009, published 2010).

In brackets after ≈: the same amount, converted by molar mass. Like-named read-outs stand apart in the source and are kept apart here. Peptide text beside a SMILES is read from it.

One assay deals with A. niger. Type of assay: cell-based, Aspergillus niger. The protocol:
(§1) In certain embodiments the MIC assays are performed as described herein in the Examples. For each organism, the media and growth conditions utilized is detailed in Table 8.
(§2) In certain embodiments the MIC assays are performed as follows: For each organism, the media and growth conditions utilized is detailed in Table 8.

A further assay has as its system MRSA. Type of assay: cell-based, Methicillin-resistant Staphylococcus aureus. The protocol:
as §1, §2

For another assay, the system named is T. rubrum. Type of assay: cell-based, Trichophyton rubrum. The protocol:
as §1, §2

In the next assay the test system is Candida albicans. In words: Binding of targeting peptides to Candida albicans. The conditions noted are these: tested at 3.13, 6.25, 12.5 and 25.0 μM in 1× PBS or HEPES/NaCl/MgCl2/0.1% CTAB. The protocol: The peptides in Table 6 were tested for binding efficiency at 3.13, 6.25, 12.5 and 25.0 μM concentrations in 1× phosphate-buffered saline or 20 mM HEPES (4-(2-hydroxyethyl)-1-piperazineethanesulfonic acid), 150 mM sodium chloride, 1 mM magnesium chloride and 0.1% CTAB.

The test system of a further assay is S. mutans. Type of assay: cell-based, Streptococcus mutans. The protocol:
as §1, §2

In the next assay the test system is S. epidermidis. Type of assay: cell-based. The protocol: as §1, §2
The test system of a further assay is B. subtilis. Type of assay: cell-based, Bacillus subtilis. The protocol:
as §1, §2

The test system of the next assay is C. albicans. Type of assay: cell-based, Candida albicans. The protocol: as §1, §2

Regarding `CC[C@H](C)[C@H](NC(=O)[C@H](C)NC(=O)[C@@H]1CCCN1C(=O)[C@H](Cc1ccccc1)NC(=O)[C@@H]1CCCN1C(=O)[C@H](CC(C)C)NC(=O)[C@@H](N)C(C)C)C(=O)N1CCC[C@H]1C(=O)N[C@@H](CC(C)C)C(=O)N[C@@H](CO)C(=O)N[C@@H](CCCNC(=N)N)C(=O)N[C@@H](CCCNC(=N)N)C(=O)N[C@@H](CCCNC(=N)N)C(=O)N[C@@H](C)C(=O)N[C@@H](CS)C(=O)N[C@H](C(=O)N[C@@H](C)C(=O)N[C@@H](C)C(=O)N1CCC[C@H]1C(=O)N[C@@H](CCCNC(=N)N)C(=O)N1CCC[C@H]1C(=O)N[C@@H](CCCNC(=N)N)C(=O)N[C@@H](CO)C(=O)N[C@@H](CCCNC(=N)N)C(=O)N[C@@H](CCC(N)=O)C(=O)N[C@@H](CCCNC(=N)N)C(=O)N[C@@H](C)C(=O)N[C@@H](CO)C(=O)O)C(C)C` [PF-168] (H-VLPFPAIPLSRRRACVAAPRPRSRQRAS-OH; N-terminus and C-terminus assumed), the MIC in the assay on A. niger, with MRSA and in the assay on T. rubrum was 50 µM (≈ 156 µg/mL) in each case. Further, in the assay on Candida albicans, the “Target(s): form of Candida albicans bound” value was “yeast cells”.

With `CC[C@H](C)[C@H](NC(=O)[C@H](CCCNC(=N)N)NC(=O)[C@@H]1CCCN1C(=O)[C@H](CCC(=O)O)NC(=O)[C@H](CC(C)C)NC(=O)[C@@H]1CCCN1C(=O)[C@H](CC(=O)O)NC(=O)[C@@H](N)CC(C)C)C(=O)N[C@@H](C)C(=O)N1CCC[C@H]1C(=O)N1CCC[C@H]1C(=O)NCC(=O)N[C@@H](CC(=O)O)C(=O)N[C@@H](CCCNC(=N)N)C(=O)N[C@@H](CO)C(=O)N[C@@H](Cc1c[nH]cn1)C(=O)N[C@@H](CCC(N)=O)C(=O)NCC(=O)N[C@@H](C)C(=O)N1CCC[C@H]1C(=O)N[C@@H](C)C(=O)N[C@@H](CS)C(=O)N[C@@H](Cc1c[nH]cn1)C(=O)N[C@@H](CCCNC(=N)N)C(=O)N[C@@H](CC(=O)O)C(=O)N1CCC[C@H]1C(=O)N[C@@H](CC(C)C)C(=O)N[C@@H](CCCNC(=N)N)C(=O)NCC(=O)N[C@@H](CCCNC(=N)N)C(=O)N[C@@H](CO)C(=O)N[C@@H](C)C(=O)N[C@@H](CCCNC(=N)N)C(=O)N[C@@H](CC(=O)O)C(=O)N[C@@H](C)C(=O)N[C@@H](CCC(=O)O)C(=O)N[C@@H](CCCNC(=N)N)C(=O)O` [PF-C019] (H-LDPLEPRIAPPGDRSHQGAPACHRDPLRGRSARDAER-OH; N-terminus and C-terminus assumed), the minimum inhibitory concentration (MIC) against A. niger was 50 µM (≈ 204 µg/mL); against T. rubrum, 50 µM (≈ 204 µg/mL); in the assay on S. mutans it was 25 µM (≈ 102 µg/mL).

In the case of `CC[C@H](C)[C@H](NC(=O)[C@H](CO)NC(=O)[C@H](CC(N)=O)NC(=O)[C@H](CCCNC(=N)N)NC(=O)[C@H](CC(N)=O)NC(=O)[C@H](CC(C)C)NC(=O)[C@H](CCCCN)NC(=O)[C@H](CCCCN)NC(=O)[C@H](CCCCN)NC(=O)[C@@H](NC(=O)[C@@H]1CCCN1C(=O)[C@H](CO)NC(=O)[C@H](CCCNC(=N)N)NC(=O)[C@@H](NC(=O)[C@H](CCCNC(=N)N)NC(=O)[C@@H](NC(=O)[C@@H](N)CCSC)[C@@H](C)CC)[C@@H](C)CC)[C@@H](C)O)C(=O)N[C@@H](CO)C(=O)N[C@@H](CC(=O)O)C(=O)N[C@@H](Cc1c[nH]c2ccccc12)C(=O)N[C@@H](CCCCN)C(=O)N[C@@H](CO)C(=O)N[C@@H](CC(N)=O)C(=O)N[C@H](C(=O)N[C@@H](CO)C(=O)NCC(=O)N[C@@H](CCCNC(=N)N)C(=O)N[C@@H](Cc1ccccc1)C(=O)N[C@@H](Cc1ccccc1)C(=O)N[C@@H](Cc1ccc(O)cc1)C(=O)O)[C@@H](C)O` [PF-283] (H-MIRIRSPTKKKLNRNSISDWKSNTSGRFFY-OH; N-terminus and C-terminus assumed), the MIC in the assay on T. rubrum, in the assay on S. epidermidis and in the assay with B. subtilis was 50 µM (≈ 182 µg/mL) in each case.

Take `CC[C@H](C)[C@H](NC(=O)[C@H](CC(N)=O)NC(=O)[C@@H](NC(=O)[C@H](Cc1ccccc1)NC(=O)[C@H](CCC(=O)O)NC(=O)CNC(=O)[C@H](CCC(N)=O)NC(=O)[C@H](Cc1ccccc1)NC(=O)[C@@H](N)CCCCN)[C@@H](C)O)C(=O)NCC(=O)N[C@@H](CCC(N)=O)C(=O)N[C@@H](CO)C(=O)N[C@@H](Cc1ccc(O)cc1)C(=O)N[C@H](C(=O)N[C@H](C(=O)N[C@@H](CO)C(=O)N[C@@H](C)C(=O)N[C@@H](CO)C(=O)N[C@@H](Cc1c[nH]cn1)C(=O)N[C@@H](CCSC)C(=O)N[C@@H](CO)C(=O)N[C@H](C(=O)N[C@@H](CO)C(=O)N[C@@H](CC(C)C)C(=O)N[C@@H](CC(N)=O)C(=O)N[C@H](C(=O)NCC(=O)N[C@@H](CCCCN)C(=O)O)[C@@H](C)O)[C@@H](C)O)C(C)C)[C@@H](C)CC` [PF-583] (H-KFQGEFTNIGQSYIVSASHMSTSLNTGK-OH; N-terminus and C-terminus assumed): the MIC with MRSA and with S. epidermidis was 50 µM (≈ 152 µg/mL) in each case. Also, the “Target(s): form of Candida albicans bound” value in the assay on Candida albicans is “hyphae”.

Regarding WSRVPGHSDTGWKVWHRW [PF-547], the minimal inhibitory concentration (MIC) in the assay on T. rubrum (T. rubrum, Potato Dextrose Agar, 25° C., aerobic, inoculum 10^5 CFU/ml, 18-24 h or 48 h) is 25 µM; in the assay on S. mutans (S. mutans, TH supplemented with 1% sucrose, 37° C., anaerobic, inoculum 10^5 CFU/ml, 18-24 h or 48 h) it was 12.5 µM; against B. subtilis (B. subtilis, BHI, 30° C., aerobic, inoculum 10^5 CFU/ml, 18-24 h or 48 h), 25 µM.

For `CC[C@H](C)[C@H](N)C(=O)N[C@@H](CC(C)C)C(=O)N[C@H](C(=O)N[C@@H](CC(C)C)C(=O)N[C@@H](CC(C)C)C(=O)N[C@@H](C)C(=O)N[C@@H](CC(C)C)C(=O)N[C@@H](CCC(N)=O)C(=O)N[C@H](C(=O)N[C@@H](CCC(=O)O)C(=O)N[C@@H](CC(C)C)C(=O)N[C@@H](CC(=O)O)C(=O)N[C@@H](CO)C(=O)N[C@@H](CCCCN)C(=O)N[C@@H](Cc1ccccc1)C(=O)N[C@@H](CCC(N)=O)C(=O)N[C@@H](Cc1ccc(O)cc1)C(=O)O)C(C)C)C(C)C` [PF-C157] (H-ILVLLALQVELDSKFQY-OH; N-terminus and C-terminus assumed), the MIC in the assay on C. albicans stood at 50 µM (≈ 99.6 µg/mL).

`CC(C)[C@H](NC(=O)[C@@H](N)Cc1ccc(O)cc1)C(=O)N[C@@H](CC(N)=O)C(=O)N[C@@H](Cc1ccc(O)cc1)C(=O)N[C@@H](CC(N)=O)C(=O)N[C@@H](CCC(N)=O)C(=O)N[C@@H](CO)C(=O)N[C@@H](Cc1ccccc1)C(=O)N[C@@H](CC(N)=O)C(=O)N[C@@H](CO)C(=O)NCC(=O)N[C@@H](Cc1c[nH]c2ccccc12)C(=O)O` [PF-C220] (H-YVNYNQSFNSGW-OH; N-terminus and C-terminus assumed): in the assay on C. albicans, the MIC was 50 µM (≈ 73.9 µg/mL).

For the compound `CC[C@H](C)[C@H](NC(=O)[C@H](CCCNC(=N)N)NC(=O)[C@H](C)NC(=O)[C@@H]1CCCN1C(=O)[C@H](Cc1c[nH]c2ccccc12)NC(=O)[C@H](CC(C)C)NC(=O)[C@H](CCCNC(=N)N)NC(=O)[C@H](CCCCN)NC(=O)[C@@H](N)Cc1c[nH]c2ccccc12)C(=O)N[C@@H](CC(C)C)C(=O)N[C@@H](C)C(=O)NCC(=O)N[C@@H](Cc1c[nH]cn1)C(=O)N[C@@H](CO)C(=O)N[C@@H](CCCNC(=N)N)C(=O)N[C@@H](CCCNC(=N)N)C(=O)N[C@@H](CCCNC(=N)N)C(=O)N[C@@H](CCSC)C(=O)N[C@@H](CCCNC(=N)N)C(=O)N[C@@H](Cc1c[nH]c2ccccc12)C(=O)N[C@@H](CCSC)C(=O)N[C@H](C(=O)N[C@H](C(=O)N[C@@H](Cc1c[nH]c2ccccc12)C(=O)N[C@@H](CCCNC(=N)N)C(=O)N[C@@H](Cc1ccc(O)cc1)C(=O)N[C@@H](Cc1ccccc1)C(=O)N[C@@H](C)C(=O)N[C@@H](C)C(=O)N[C@H](C(=O)O)[C@@H](C)O)C(C)C)C(C)C` [PF-C021] (H-WKRLWPARILAGHSRRRMRWMVVWRYFAAT-OH; N-terminus and C-terminus assumed), the minimal inhibitory concentration (MIC) against C. albicans and in the assay with T. rubrum was 50 µM (≈ 193 µg/mL) each time.

With `CC[C@H](C)[C@H](NC(=O)[C@H](CCCCN)NC(=O)[C@H](C)NC(=O)[C@H](Cc1ccccc1)NC(=O)[C@@H](NC(=O)[C@H](C)NC(=O)[C@H](CC(C)C)NC(=O)[C@H](CO)NC(=O)[C@@H](N)CC(C)C)[C@@H](C)O)C(=O)N[C@@H](Cc1ccccc1)C(=O)N[C@@H](CCSC)C(=O)N[C@H](C(=O)N[C@@H](CCCNC(=N)N)C(=O)N[C@@H](CO)C(=O)N[C@@H](CC(N)=O)C(=O)N[C@@H](Cc1c[nH]c2ccccc12)C(=O)N[C@@H](CO)C(=O)N[C@@H](CC(C)C)C(=O)N[C@@H](CCCCN)C(=O)N[C@@H](CCCNC(=N)N)C(=O)N[C@@H](Cc1ccccc1)C(=O)N[C@@H](CC(N)=O)C(=O)N[C@@H](CCCNC(=N)N)C(=O)N[C@@H](CC(C)C)C(=O)O)[C@@H](C)O` [PF-278] (H-LSLATFAKIFMTRSNWSLKRFNRL-OH; N-terminus and C-terminus assumed), the MIC in the assay on C. albicans, in the assay with T. rubrum and with S. epidermidis was 50 µM each time.
